Measurements: PMC4550771, “Synthesis and Validation of a Hydroxypyrone-Based, Potent, and Specific Matrix Metalloproteinase-12 Inhibitor with Anti-Inflammatory Activity In Vitro and In Vivo” (Mediators of Inflammation, 2015)
pIC50: −log10 of the molar value.

Key:
[1] = test system: LPS-induced lethality in mice; conditions: cited from earlier work
[2] = molecular target: T1, human recombinant MMP-1 catalytic domain (Homo sapiens, UniProt P03956); experiment: Recombinant MMP fluorescent assay kit (OmniMMP substrate); assay type: biochemical
T1 construct: a panel of ten human recombinant MMP catalytic domains; purchased Enzo Life Sciences BML-AK016
T1 sequence (P03956 100-269 limits assumed): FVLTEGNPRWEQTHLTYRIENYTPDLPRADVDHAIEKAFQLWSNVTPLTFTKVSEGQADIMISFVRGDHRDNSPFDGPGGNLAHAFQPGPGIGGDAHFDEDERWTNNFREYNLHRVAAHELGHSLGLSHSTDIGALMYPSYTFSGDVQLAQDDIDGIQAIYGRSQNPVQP
Experimental: (§1) The specificity of the synthesized inhibitor was determined in vitro against a panel of ten human recombinant MMP catalytic domains using a fluorescent assay kit (BML-AK016, Enzo Life Sciences). Briefly, the compound was dissolved in dimethyl sulfoxide (DMSO) and further diluted in assay buffer (50 mM HEPES, 10 mM CaCl2, 0.05% Brij-35, and pH 7.5). Ten MMPs (MMP-1, MMP-2, MMP-3, MMP-7, MMP-8, MMP-9, MMP-10, MMP-12, MMP-13, and MMP-14) were individually incubated with varying concentrations of inhibitor for one hour at 37°C, followed by addition of a quenched fluorogenic substrate (OmniMMP fluorogenic substrate Mca-Pro-Leu-Gly-Leu-Dpa-Ala-Arg-NH2 [Mca is (7-methoxycoumarin-4-yl)-acetyl; Dpa is N-3-(2,4-dinitrophenyl)-L-α-β-diaminopropionyl], 4 μM in assay). […] After each fluorescent measurement the well plates were shaken for 2 sec to agitate the reagents. In each experiment we included a blank, a substrate control (substrate only in assay buffer), a positive control (NNGH, 1.3 μM final concentration), and negative control (only substrate and inhibitor in assay buffer). The latter was implemented to exclude possible interference of the inhibitor with the substrate. […] The IC50 values were determined in a single experimental run in duplicate. Data analysis and curve fitting for determination of IC50 values were performed in GraphPad Prism 6.

[3] = molecular target: T2, human recombinant MMP-10 catalytic domain (Homo sapiens, UniProt P09238); experiment: as above; assay type: biochemical
T2 construct: a panel of ten human recombinant MMP catalytic domains; purchased Enzo Life Sciences BML-AK016
Experimental: as §1

[4] = molecular target: T3, human recombinant MMP-13 catalytic domain (Homo sapiens, UniProt P45452); experiment: as above; assay type: biochemical
T3 construct: a panel of ten human recombinant MMP catalytic domains; purchased Enzo Life Sciences BML-AK016
Experimental: as §1

[5] = molecular target: T4, human recombinant MMP-14 catalytic domain (Homo sapiens, UniProt P50281); experiment: as above; assay type: biochemical
T4 construct: a panel of ten human recombinant MMP catalytic domains; purchased Enzo Life Sciences BML-AK016
Experimental: as §1

[6] = molecular target: T5, human recombinant MMP-2 catalytic domain (Homo sapiens, UniProt P08253); experiment: as above; assay type: biochemical
T5 construct: a panel of ten human recombinant MMP catalytic domains; purchased Enzo Life Sciences BML-AK016
Experimental: as §1

[7] = molecular target: T6, human recombinant MMP-3 catalytic domain (Homo sapiens, UniProt P08254); experiment: as above; assay type: biochemical
T6 construct: a panel of ten human recombinant MMP catalytic domains; purchased Enzo Life Sciences BML-AK016
Experimental: as §1

[8] = molecular target: T7, human recombinant MMP-7 catalytic domain (Homo sapiens, UniProt P09237); experiment: as above; assay type: biochemical
T7 construct: a panel of ten human recombinant MMP catalytic domains; purchased Enzo Life Sciences BML-AK016
T7 sequence (P09237 95-267): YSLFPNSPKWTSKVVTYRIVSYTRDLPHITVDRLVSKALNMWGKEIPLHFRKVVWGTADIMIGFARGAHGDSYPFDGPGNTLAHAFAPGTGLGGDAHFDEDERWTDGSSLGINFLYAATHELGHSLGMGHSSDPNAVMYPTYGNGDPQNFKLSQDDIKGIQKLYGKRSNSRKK
Experimental: as §1

[9] = molecular target: T8, human recombinant MMP-8 catalytic domain (Homo sapiens, UniProt P22894); experiment: as above; assay type: biochemical
T8 construct: a panel of ten human recombinant MMP catalytic domains; purchased Enzo Life Sciences BML-AK016
Experimental: as §1

[10] = molecular target: T9, human recombinant MMP-9 catalytic domain (Homo sapiens, UniProt P14780); experiment: as above; assay type: biochemical
T9 construct: a panel of ten human recombinant MMP catalytic domains; purchased Enzo Life Sciences BML-AK016
Experimental: as §1

[11] = molecular target: T10, human recombinant MMP-12 catalytic domain (Homo sapiens, UniProt P39900); experiment: Recombinant MMP fluorescent assay kit (OmniMMP substrate), initial screen; assay type: biochemical; conditions: pH 7.5, 1 h incubation at 37°C, OmniMMP substrate 4 μM, read-out: apparent IC50 MMP-12 (initial screen)
T10 construct: human recombinant MMP-3 (72006, AnaSpec) and MMP-12 catalytic domains (55525-1, AnaSpec); purchased AnaSpec 55525-1
Experimental: as §1

[12] = molecular target: T10, human recombinant MMP-12 catalytic domain; experiment: Detailed dose-response with Substrate XIII (AnaSpec) quenched fluorescent substrate; assay type: biochemical
Experimental: […] Briefly, the compound was dissolved in dimethyl sulfoxide (DMSO) and further diluted in assay buffer (50 mM HEPES, 10 mM CaCl2, 0.05% Brij-35, and pH 7.5). […] In each experiment we included a blank, a substrate control (substrate only in assay buffer), a positive control (NNGH, 1.3 μM final concentration), and negative control (only substrate and inhibitor in assay buffer). The latter was implemented to exclude possible interference of the inhibitor with the substrate. […] The IC50 values were determined in a single experimental run in duplicate. Data analysis and curve fitting for determination of IC50 values were performed in GraphPad Prism 6.

[13] = test system: LPS-induced lethality in C57BL/6 mice; experiment: Endotoxemia model: survival after lethal LPS challenge; assay type: in vivo, mouse; conditions: 100 μg i.p. 15 min before and 3 and 6 h after LPS 200 μg/20 g i.p. (LD100), log-rank test
Description: Female C57BL/6J (8–10 weeks old) mice were purchased from Janvier Labs (France) and MMP-12 knockout mice (MMP-12^−/−) (in C57BL/6J background together with littermate MMP-12^+/+ controls) were obtained from Dr. Steven Shapiro (University of Pittsburgh, USA). C57BL/6 and MMP-12^−/− mice were housed with 4–6 mice/cage with ad libitum access to food and water and with a 14-hour light/10-hour dark cycle in a specific pathogen-free animal facility and conventional facility, respectively. All experiments were approved by the Ethics Committee of the Faculty of Sciences of Ghent University.
Endotoxemia was induced by intraperitoneal (i.p.) injection of lipopolysaccharide (LPS) from Salmonella enterica serotype abortus equi (Sigma) dissolved in PBS. […] Control animals received i.p. injections of PBS. Rectal temperature was measured periodically after challenge. 100 μg MMP-12i (1 μg/μL) or vehicle control was administered intraperitoneally at different time points: 15 min before and 3 and 6 hours after LPS administration.

[14] = test system: primary mouse choroid plexus epithelial cells; experiment: Blood-CSF barrier permeability in vitro (ECIS impedance); assay type: cell-based; conditions: 1 μM inhibitor 1 hour before LPS 1000 ng/mL; n = 3
Experimental: Culturing primary mouse choroid plexus epithelial cells was done as described. In brief, 2–9-day-old pups were decapitated and brains were isolated. Choroid plexuses from all four ventricles were isolated under a dissection microscope. The cells were dissociated enzymatically by incubating them for 5–7 min with pronase (isolated from Streptomyces griseus, Sigma). Digestion was stopped by adding an excess of HBSS buffer and the cells were washed twice with HBSS. The cell pellet was resuspended in DMEM-F12 culture medium and plated on laminin-coated plates. Two days later, they were shifted to DMEM-F12 containing cytosine arabinoside (Ara-C) to eliminate growth of fibroblasts. Cultures were maintained at 37°C in 5% CO2. Purity of the cultures was confirmed by checking the levels of transthyretin (TTR) both by qPCR and by immunostaining. Primary CPE cells retained the epithelial and the barrier properties which were confirmed by staining for E-cadherin, ZO-1, and occludin. The electric cell-substrate impedance (ECIS) technique (Applied Biophysics) was used to monitor barrier properties as described before. 250.000 cells per well were seeded onto laminin-coated 8W10E array plates (Applied Biophysics) and the array holder was placed in a standard cell culture incubator (37°C, 100% humidity, and 5% CO2). Array plates were connected to the instrument and multifrequency measurements were started. […]

T10 sequence (P39900 106-263 limits assumed): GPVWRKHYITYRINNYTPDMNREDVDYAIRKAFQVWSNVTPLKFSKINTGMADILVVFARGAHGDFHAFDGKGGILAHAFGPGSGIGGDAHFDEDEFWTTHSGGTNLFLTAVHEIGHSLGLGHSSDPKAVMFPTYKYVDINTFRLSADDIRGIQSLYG
T9 sequence (P14780 107-444 limits assumed): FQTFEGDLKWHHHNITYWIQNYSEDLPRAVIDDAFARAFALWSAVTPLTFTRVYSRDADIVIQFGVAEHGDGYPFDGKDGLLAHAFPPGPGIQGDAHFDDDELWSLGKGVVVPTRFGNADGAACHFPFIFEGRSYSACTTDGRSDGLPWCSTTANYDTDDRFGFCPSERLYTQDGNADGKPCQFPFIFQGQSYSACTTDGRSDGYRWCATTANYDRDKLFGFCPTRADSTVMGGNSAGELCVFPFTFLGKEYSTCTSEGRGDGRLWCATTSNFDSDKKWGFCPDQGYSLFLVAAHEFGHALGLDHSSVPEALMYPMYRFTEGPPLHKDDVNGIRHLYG
T2 sequence (P09238 99-263 limits assumed): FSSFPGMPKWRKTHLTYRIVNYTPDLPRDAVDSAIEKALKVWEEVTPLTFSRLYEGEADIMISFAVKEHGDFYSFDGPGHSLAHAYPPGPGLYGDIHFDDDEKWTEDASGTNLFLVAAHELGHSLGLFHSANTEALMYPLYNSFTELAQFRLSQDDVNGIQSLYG
T8 sequence (P22894 100-262 limits assumed): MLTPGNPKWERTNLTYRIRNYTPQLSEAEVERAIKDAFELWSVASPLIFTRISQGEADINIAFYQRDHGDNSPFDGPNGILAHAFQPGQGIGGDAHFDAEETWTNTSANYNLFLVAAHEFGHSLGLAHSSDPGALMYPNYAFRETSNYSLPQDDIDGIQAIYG
T5 sequence (P08253 110-446 limits assumed): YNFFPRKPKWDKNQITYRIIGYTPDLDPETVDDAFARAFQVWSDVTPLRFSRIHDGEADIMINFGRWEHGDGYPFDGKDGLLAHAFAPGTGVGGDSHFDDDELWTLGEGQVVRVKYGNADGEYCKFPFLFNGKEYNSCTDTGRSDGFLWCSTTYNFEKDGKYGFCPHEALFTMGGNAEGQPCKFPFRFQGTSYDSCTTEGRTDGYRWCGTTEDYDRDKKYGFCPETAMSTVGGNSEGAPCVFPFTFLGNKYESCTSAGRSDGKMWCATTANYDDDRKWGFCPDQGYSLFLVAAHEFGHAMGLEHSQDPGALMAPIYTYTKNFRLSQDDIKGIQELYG
T6 sequence (P08254 100-272 limits assumed): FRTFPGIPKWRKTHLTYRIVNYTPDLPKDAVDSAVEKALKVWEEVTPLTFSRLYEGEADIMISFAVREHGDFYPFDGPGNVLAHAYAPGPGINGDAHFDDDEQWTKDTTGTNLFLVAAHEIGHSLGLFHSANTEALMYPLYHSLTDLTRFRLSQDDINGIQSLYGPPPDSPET

| SMILES | protection from LPS-induced lethality [1] | pIC50 [2] | pIC50 [3] | pIC50 [4] | pIC50 [5] | pIC50 [6] | pIC50 [7] | pIC50 [8] | pIC50 [9] | pIC50 [10] | pIC50 [11] | IC50 ([12]; Figure 1(c) fitted dose-response curve, read-out: log(IC50) MMP-12 (converted)) [µM] | inhibitory plateau at higher inhibitor concentrations, MMP-12 ([12]; Substrate XIII (AnaSpec), nonlinear regression) [%] | pIC50 ([12]; Substrate XIII (AnaSpec), nonlinear regression of dose-response curve, read-out: relative IC50 MMP-12) | LPS-induced lethality (survival) vs vehicle [13] | LPS-induced drop in normalized resistance (ECIS, low frequency) [14] |
| --- | --- | --- | --- | --- | --- | --- | --- | --- | --- | --- | --- | --- | --- | --- | --- | --- |
| CNC(=O)[C@H](Cc1ccccc1)NC(=O)[C@H](CC(C)C)[C@H](CSc1cccs1)C(=O)NO [BB-94] | protected from LPS-induced lethality |  |  |  |  |  |  |  |  |  |  |  |  |  |  |  |
| Cc1cc(=O)c(O)c(C(=O)NCc2ccc(-c3ccc(-c4ccccc4)cc3)cc2)o1 [Compound 9, N-([1,1′:4′,1′′-Terphenyl]-4-ylmethyl)-3-hydroxy-6-methyl-4-oxo-4H-pyran-2-carboxamide] |  | < 4.30 | < 4.30 | < 4.30 | 4.30 to 5.70 | 4.30 to 5.70 | < 4.30 | < 4.30 | 4.30 to 5.70 | < 4.30 | > 5.70 | 0.177 | 72 ± 1.75 | 6.75 | significant reduction in LPS-induced lethality | significantly reduced |
